In ChEMBL document CHEMBL4765492, “Discovery of GLPG2451, a Novel Once Daily Potentiator for the Treatment of Cystic Fibrosis” (J Med Chem, 2021):
Values after ≈ are worked out from the molar mass of the structure shown. Active and inactive are the calls of the source. The rule behind the calls is not given here.

What was measured:
[1] = Unbound intrinsic clearance in rat liver microsomes; assay type: ADME, Microsome
[2] = target: Cystic fibrosis transmembrane conductance regulator (Homo sapiens, UniProt P13569, F508DEL); test: Potentiation of CFTR F508del mutant (unknown origin) expressed in human CFBE41o- cells co-expressing YFP incubated for 10 mins by halide potentiator assay; assay type: cell-based
Sequence of Cystic fibrosis transmembrane conductance regulator (Homo sapiens, UniProt P13569, F508DEL) (P13569 as listed by the source): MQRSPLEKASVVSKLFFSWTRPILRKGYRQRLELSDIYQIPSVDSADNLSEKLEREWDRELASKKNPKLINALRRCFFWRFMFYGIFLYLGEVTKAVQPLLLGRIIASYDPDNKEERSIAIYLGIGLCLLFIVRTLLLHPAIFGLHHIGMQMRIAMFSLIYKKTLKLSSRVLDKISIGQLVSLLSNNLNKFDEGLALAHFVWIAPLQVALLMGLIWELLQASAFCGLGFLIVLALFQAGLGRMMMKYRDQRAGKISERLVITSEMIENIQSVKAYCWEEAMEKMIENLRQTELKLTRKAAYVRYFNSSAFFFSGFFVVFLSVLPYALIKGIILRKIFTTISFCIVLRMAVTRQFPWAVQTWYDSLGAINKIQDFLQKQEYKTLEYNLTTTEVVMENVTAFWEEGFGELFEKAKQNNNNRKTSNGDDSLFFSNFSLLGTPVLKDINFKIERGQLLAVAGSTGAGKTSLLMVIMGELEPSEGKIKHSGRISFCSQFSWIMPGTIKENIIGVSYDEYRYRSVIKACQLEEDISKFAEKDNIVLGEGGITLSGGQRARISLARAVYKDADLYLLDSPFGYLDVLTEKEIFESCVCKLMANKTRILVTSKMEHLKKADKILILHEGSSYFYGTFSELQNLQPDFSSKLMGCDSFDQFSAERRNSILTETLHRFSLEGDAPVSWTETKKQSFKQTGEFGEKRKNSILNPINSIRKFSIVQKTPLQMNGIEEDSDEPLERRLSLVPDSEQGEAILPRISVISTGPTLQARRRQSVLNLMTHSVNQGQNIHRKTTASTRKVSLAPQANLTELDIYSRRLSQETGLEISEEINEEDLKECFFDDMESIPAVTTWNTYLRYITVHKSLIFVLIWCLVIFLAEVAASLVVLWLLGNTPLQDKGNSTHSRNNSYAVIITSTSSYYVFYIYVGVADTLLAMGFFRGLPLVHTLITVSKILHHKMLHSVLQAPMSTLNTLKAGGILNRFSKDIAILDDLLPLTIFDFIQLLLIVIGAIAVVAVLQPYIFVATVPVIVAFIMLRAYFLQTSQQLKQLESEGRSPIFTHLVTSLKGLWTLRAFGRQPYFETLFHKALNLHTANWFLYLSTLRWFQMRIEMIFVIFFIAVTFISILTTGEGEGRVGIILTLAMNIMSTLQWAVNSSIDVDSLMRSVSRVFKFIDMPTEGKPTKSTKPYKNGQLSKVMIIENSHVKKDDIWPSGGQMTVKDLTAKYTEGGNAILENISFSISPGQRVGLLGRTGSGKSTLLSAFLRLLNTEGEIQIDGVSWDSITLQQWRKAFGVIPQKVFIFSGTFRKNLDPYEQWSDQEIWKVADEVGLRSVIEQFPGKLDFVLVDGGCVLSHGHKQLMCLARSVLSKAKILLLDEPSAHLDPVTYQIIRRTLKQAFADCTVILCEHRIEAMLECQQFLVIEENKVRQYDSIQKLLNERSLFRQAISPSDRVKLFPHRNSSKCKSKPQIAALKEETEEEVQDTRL

[3] = Permeability of compound across apical to basolateral membrane in MDCK cells; assay type: ADME, cell-based, Canis lupus familiaris; conditions: dog, read-out: permeability
[4] = Permeability efflux ratio in MDCK cells; assay type: ADME, cell-based, Canis lupus familiaris; conditions: dog
[5] = Unbound intrinsic clearance in rat hepatocytes; assay type: ADME, cell-based, Hepatocyte
[6] = AUC in rat at 5 mg/kg, po; assay type: ADME, organism-based; parameters: dose 5 mg/kg; conditions: in vivo
[7] = Clearance in Sprague-Dawley rat at 1 mg/kg, iv; assay type: ADME, organism-based; conditions: in vivo
[8] = Unbound clearance in Sprague-Dawley rat at 1 mg/kg, iv; assay type: ADME, organism-based; conditions: in vivo
[9] = Volume of distribution at steady state in Sprague-Dawley rat at 1 mg/kg, iv; assay type: ADME, organism-based; conditions: in vivo, read-out: Vdss
[10] = Half life in Sprague-Dawley rat at 1 mg/kg, iv; assay type: ADME, organism-based; conditions: in vivo
[11] = Unbound intrinsic clearance in human liver microsomes; assay type: ADME, Microsome
[12] = Inhibition of CYP450 (unknown origin); assay type: ADME; conditions: human
[13] = Kinetic aqueous solubility of the compound at pH 7.4; assay type: physicochemical; conditions: buffer, read-out: Kinetic_solubility
[14] = target: T1, Nuclear receptor subfamily 1 group I member 2 (Homo sapiens, UniProt O75469); test: Activation of PXR (unknown origin) at 10 uM by CYP450 induction assay relative to rifampicin; assay type: ADME
T1 sequence (O75469 whole entry): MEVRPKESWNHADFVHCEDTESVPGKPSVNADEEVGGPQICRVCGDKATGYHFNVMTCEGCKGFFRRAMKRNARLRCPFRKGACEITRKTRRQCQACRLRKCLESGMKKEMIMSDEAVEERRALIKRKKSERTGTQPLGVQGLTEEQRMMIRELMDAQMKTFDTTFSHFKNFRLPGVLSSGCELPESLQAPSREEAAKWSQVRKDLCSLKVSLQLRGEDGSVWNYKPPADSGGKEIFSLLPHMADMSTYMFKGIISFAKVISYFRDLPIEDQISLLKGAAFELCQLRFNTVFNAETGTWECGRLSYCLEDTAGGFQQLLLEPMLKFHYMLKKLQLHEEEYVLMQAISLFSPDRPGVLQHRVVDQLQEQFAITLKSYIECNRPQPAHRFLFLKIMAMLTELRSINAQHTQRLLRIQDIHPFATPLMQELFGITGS

[15] = tested on: Cystic fibrosis transmembrane conductance regulator (Homo sapiens), P13569 [G551D]; test: Potentiation of CFTR G551D mutant (unknown origin) expressed in human HEK293 cells co-expressing YFP incubated for 10 mins by halide potentiator assay relative to control; assay type: cell-based; conditions: filed as activator
Sequence of Cystic fibrosis transmembrane conductance regulator (Homo sapiens), P13569 [G551D] (P13569 whole entry G551D): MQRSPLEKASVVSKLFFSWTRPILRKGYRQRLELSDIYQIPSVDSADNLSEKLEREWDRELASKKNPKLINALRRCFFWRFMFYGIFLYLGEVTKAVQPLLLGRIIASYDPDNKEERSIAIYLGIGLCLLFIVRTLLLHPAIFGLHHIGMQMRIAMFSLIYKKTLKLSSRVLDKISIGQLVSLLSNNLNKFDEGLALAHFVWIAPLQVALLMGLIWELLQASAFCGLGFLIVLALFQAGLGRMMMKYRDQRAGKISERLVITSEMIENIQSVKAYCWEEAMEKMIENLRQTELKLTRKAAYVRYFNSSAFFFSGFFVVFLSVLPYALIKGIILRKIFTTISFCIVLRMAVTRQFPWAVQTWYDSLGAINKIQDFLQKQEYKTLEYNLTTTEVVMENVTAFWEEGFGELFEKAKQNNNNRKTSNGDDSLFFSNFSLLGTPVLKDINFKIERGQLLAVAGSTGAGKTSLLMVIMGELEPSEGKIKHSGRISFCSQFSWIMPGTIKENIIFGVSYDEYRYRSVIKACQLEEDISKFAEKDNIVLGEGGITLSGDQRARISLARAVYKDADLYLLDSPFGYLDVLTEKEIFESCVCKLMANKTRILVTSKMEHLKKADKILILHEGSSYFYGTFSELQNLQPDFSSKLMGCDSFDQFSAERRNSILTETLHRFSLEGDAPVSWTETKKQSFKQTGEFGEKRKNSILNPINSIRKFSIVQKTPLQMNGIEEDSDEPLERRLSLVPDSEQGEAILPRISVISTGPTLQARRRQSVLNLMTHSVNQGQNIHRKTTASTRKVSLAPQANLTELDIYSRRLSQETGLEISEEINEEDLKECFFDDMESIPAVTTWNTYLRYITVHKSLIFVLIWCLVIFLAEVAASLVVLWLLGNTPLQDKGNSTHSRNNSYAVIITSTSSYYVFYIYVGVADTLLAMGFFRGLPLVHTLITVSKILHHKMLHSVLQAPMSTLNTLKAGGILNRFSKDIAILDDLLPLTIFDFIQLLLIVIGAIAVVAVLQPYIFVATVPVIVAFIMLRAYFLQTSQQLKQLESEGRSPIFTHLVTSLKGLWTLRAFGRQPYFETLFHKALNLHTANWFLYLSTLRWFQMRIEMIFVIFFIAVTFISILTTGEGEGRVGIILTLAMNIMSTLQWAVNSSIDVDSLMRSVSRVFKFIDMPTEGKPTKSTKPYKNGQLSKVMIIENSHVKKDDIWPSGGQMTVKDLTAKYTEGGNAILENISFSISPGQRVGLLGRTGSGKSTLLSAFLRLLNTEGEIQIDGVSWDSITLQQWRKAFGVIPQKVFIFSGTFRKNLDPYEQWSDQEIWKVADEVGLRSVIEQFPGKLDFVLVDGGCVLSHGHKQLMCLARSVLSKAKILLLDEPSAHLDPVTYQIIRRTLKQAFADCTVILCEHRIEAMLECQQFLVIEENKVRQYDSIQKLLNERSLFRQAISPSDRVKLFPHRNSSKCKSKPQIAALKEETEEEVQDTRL

[16] = tested on: Cystic fibrosis transmembrane conductance regulator (Homo sapiens), P13569 [F508del,G551D]; test: Potentiation of CFTR F508del/G551D mutant in human HBE cells assessed as increase in channel current at 10 nM to 1000 nM incubated for 20 mins by Ussing chamber assay; assay type: cell-based; conditions: Primary bronchial epithelial cell, filed as activator
Sequence of Cystic fibrosis transmembrane conductance regulator (Homo sapiens), P13569 [F508del,G551D] (P13569 as listed by the source): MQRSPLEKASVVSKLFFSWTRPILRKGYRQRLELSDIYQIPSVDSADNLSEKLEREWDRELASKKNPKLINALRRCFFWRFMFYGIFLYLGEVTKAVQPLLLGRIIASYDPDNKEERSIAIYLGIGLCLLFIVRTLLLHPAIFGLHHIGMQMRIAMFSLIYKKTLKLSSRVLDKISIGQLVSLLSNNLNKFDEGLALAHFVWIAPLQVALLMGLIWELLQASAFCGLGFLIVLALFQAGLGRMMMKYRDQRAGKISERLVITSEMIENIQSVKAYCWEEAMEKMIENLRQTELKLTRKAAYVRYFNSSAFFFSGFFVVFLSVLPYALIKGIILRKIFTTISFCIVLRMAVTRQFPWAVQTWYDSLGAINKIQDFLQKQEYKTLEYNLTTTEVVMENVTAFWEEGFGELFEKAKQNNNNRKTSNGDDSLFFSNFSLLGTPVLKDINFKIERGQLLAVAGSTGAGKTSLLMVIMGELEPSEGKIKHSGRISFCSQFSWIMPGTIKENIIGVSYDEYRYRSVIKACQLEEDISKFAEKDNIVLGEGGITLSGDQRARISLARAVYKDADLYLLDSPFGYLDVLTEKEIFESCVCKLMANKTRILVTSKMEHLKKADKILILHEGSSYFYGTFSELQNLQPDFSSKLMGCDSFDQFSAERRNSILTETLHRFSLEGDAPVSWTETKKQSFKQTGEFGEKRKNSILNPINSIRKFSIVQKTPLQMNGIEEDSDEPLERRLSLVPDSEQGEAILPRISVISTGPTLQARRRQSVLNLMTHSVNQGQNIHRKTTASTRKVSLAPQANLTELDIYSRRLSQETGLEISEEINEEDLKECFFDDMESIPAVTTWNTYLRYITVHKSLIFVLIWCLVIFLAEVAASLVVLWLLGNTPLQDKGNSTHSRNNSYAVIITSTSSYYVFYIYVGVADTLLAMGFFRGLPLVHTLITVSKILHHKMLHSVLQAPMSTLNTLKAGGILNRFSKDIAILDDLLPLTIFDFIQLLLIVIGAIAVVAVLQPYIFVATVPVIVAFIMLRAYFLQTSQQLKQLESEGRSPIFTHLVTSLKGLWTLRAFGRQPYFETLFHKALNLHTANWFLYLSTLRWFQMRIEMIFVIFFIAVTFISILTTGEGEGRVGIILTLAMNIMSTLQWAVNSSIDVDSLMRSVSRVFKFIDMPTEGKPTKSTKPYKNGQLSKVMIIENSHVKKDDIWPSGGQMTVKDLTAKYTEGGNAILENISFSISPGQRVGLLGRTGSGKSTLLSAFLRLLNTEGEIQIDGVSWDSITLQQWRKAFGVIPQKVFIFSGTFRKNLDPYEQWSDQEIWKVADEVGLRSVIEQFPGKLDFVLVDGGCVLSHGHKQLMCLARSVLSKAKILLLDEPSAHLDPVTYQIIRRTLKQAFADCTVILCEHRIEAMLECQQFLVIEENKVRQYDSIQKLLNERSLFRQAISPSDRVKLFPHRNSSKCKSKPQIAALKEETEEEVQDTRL

[17] = target: Cystic fibrosis transmembrane conductance regulator (Homo sapiens, UniProt P13569, G551D); test: Potentiation of CFTR G551D mutant (unknown origin) expressed in human HEK293 cells co-expressing YFP incubated for 10 mins by halide potentiator assay; assay type: cell-based
Sequence of Cystic fibrosis transmembrane conductance regulator (Homo sapiens, UniProt P13569, G551D) (P13569 whole entry G551D): as the sequence (P13569 whole entry G551D) above

[18] = Oral bioavailability in rat at 5 mg/kg; assay type: ADME, organism-based; conditions: in vivo
[19] = Clearance in rat at 1 mg/kg, iv relative to hepatic blood flow; assay type: ADME, organism-based; conditions: in vivo

In the case of `CC(C)(O)C(=O)Nc1sc(S(=O)(=O)c2ccc(F)cc2)cc1C(N)=O`, the CL free [1] is reported as 30 mL/min/kg, the EC50 [2] is reported as 26 nM and the Papp A→B [3] is reported as 4 ×10⁻⁶ cm/s. For the same compound, the efflux ratio [4] was 5, the CL free [5] was 46.7 mL/min/kg and the AUC [6] was 5600 ng·h/mL.

`Nc1cc(S(=O)(=O)c2ccc(F)cc2)cnc1C(=O)N1CC(O)(C(F)(F)F)C1` showed a CL free [1] of 28.3 mL/min/kg and an EC50 [2] of 1.1 nM.

In the case of `Nc1cc(S(=O)(=O)c2ccc(OC(F)(F)F)cc2)cnc1C(=O)NC[C@@H](O)C(F)(F)F`, the CL free [1] is reported as 58.3 mL/min/kg, the EC50 [2] is reported as 3.4 nM and the clearance [7] is reported as 1.33 mL/min/kg. For the same compound, the CL free [8] was 86.7 mL/min/kg, the Vd [9] was 6 L/kg and the half-life [10] was > 50 h. The CL free [11] was 36.7 mL/min/kg, the “inhibition (INH)” value [12] was “Not Active” and the solubility kinetic [13] was < 19 µM. It also gave an Activity [14] of 10%.

For `Nc1cc(S(=O)(=O)c2ccc(OC(F)(F)F)cc2)cnc1C(=O)NCC1(O)CC1`, the CL free [1] was 93.3 mL/min/kg and the EC50 [2] was 2.8 nM.

In the case of `CN(Cc1ccccc1)S(=O)(=O)c1cc(C(N)=O)c(NC(=O)c2ccn[nH]2)s1`, the CL free [1] is reported as 1880 mL/min/kg, the EC50 [2] is reported as 17 nM and the Activity [15] is reported as 115%. The Activity [16] was “Active”, the Papp A→B [3] was 0.65 ×10⁻⁶ cm/s and the efflux ratio [4] was 47.

In the case of `Nc1cc(S(=O)(=O)N2CCC(OC(F)(F)F)CC2)cnc1C(=O)NCC(O)C(F)(F)F` (configuration not stated), the CL free [1] is reported as 300 mL/min/kg, the EC50 [2] is reported as 5 nM and the clearance [7] is reported as 31.7 mL/min/kg. The CL free [8] was 317 mL/min/kg, the Vd [9] was 3.2 L/kg and the half-life [10] was 1.3 h. For the same compound, the CL free [11] was 130 mL/min/kg.

In the case of `Nc1cc(S(=O)(=O)c2ccccc2OC(F)(F)F)cnc1C(=O)NC[C@@H](O)C(F)(F)F`, the CL free [1] is reported as 120 mL/min/kg, the EC50 [2] is reported as < 0.31 nM and the clearance [7] is reported as 9.83 mL/min/kg. For the same compound, the CL free [8] was 258 mL/min/kg, the Vd [9] was 5.1 L/kg and the half-life [10] was 6.7 h. For the same compound, the CL free [11] was 45 mL/min/kg, the “inhibition (INH)” value [12] was “Not Active” and the solubility kinetic [13] was 75 µM (≈ 35.5 µg/mL). For the same compound, the Activity [14] was 80%.

`COc1ccc(S(=O)(=O)c2cc(C(N)=O)c(NC(=O)C(C)(C)O)s2)cc1` gave a CL free [1] of 33 mL/min/kg, an EC50 [2] of 20 nM and an Activity [15] of 85%. It also gave an AUC [6] of 12400 ng·h/mL, an EC50 [17] of 478 nM and a bioavailability [18] of 46%. It also gave a clearance [7] of 2.05 mL/min/kg, a CL free [8] of 167 mL/min/kg and a Vd [9] of 2.7 L/kg. For the same compound, the half-life [10] was 15.5 h, the CLH [19] was < 3% and the CL free [11] was 10 mL/min/kg.

Work on `CC(C)(C)C(=O)Nc1sc(S(=O)(=O)c2ccc(F)cc2)cc1C(N)=O` yielded a CL free [1] of 105 mL/min/kg and an EC50 [2] of 352 nM.
